Key:
[1] = Plasma pharmacokinetics of TRA, ponatinib and metabolites after a single oral 45-mg [14C]ponatinib dose; conditions: for time postdose at which C max / maximal levels in plasma were observed: single oral 45-mg dose, M23 by radiochromatography; for concentration at 144 h: oral
Method: The subject release criterion was defined as follows: the combined urine and fecal radioactivity excretion for two consecutive days should fall below 1% of the dose administered.
Detailed procedures on sample collection, storage, and shipment are described in Online Resource 1. […] Fecal homogenates were prepared by adding water (four times the feces weight) and homogenizing.
TRA analysis was carried out at ABC Laboratories. The radioactivity in plasma (duplicate per time point) and urine samples (triplicate per time point) was quantitated by direct counting in a Beckman LS6000SC or LS6500 liquid scintillation counter (PerkinElmer Life and Analytical Sciences, Boston, MA, USA). Whole blood (duplicate per time point) and fecal homogenate (triplicate per time point) samples were oxidized, and the resultant ^14CO2 was trapped in Carbosorb (Calgon Carbon Corporation, Pittsburgh, PA, USA) in combination with Permafluor, followed by liquid scintillation counting to determine the radioactivity. Individual samples were counted for 5 min for whole blood and fecal matrices, and 10 min for plasma and urine matrices. Predose blood, plasma, urine, and feces samples served as respective control samples to determine and subtract the background radioactivity in the analysis.
M14 was quantitated using a different LC/MS/MS method (Online Resource 2). The pharmacokinetic analysis was carried out using WinNonlin® v6.4 (Pharsight Corp., Mountain View, CA, USA).
Aliquots of 30 µl of calibration standards, quality controls, and incurred plasma samples were transferred into a 96-well plate. Then 150 µl of ice-cold acetonitrile containing 50 ng/ml of AP30376 (d6-AP24600, internal standard) were added. The 96-well plate was vortexed for 10 min and then centrifuged at 4750 rpm for 20 min at 4°C. 100 µl aliquots of the supernatants were transferred into another 96-well plate and the samples were analyzed by liquid chromatography tandem mass spectrometry.

[2] = Metabolite profiling of plasma (HPLC-radiochromatography); type: in vivo, human; conditions: % of TRA
Method: For each subject, a 0–24 h pooled plasma sample was prepared according to the scheme outlined in the literature. In addition, several pooled plasma samples across all subjects were prepared at these time points: 5, 10, 12, […], and 48 h, and every 24 h thereafter until 240 h.
All pooled 0–24, 5, 10, 12, and 24 h plasma samples were processed as follows. […] The samples were vortexed for 30 min and centrifuged at 4500g at 4 °C for 6 min. The supernatants were transferred into new polypropylene tubes and kept on ice. The resulting plasma protein pellets were extracted twice to ensure good recovery and the extracts were combined. The combined extracts were loaded onto Ostro sample preparation plates (Waters Corporation, Milford, MA, USA), dried, eluted with 0.2 mL of cold acetonitrile, and all eluates were collected and evaporated under nitrogen (TurboVap LV; Caliper Life Sciences, Hopkinton, MA, USA). The dry residues were reconstituted in 0.1 mL of methanol, and a 0.005-mL aliquot was removed for determination of radioactivity. The remainder of the supernatants were transferred to high-performance liquid chromatography (HPLC) vials and stored at −80 °C until analysis.
Pooled post-24-h plasma samples were extracted using a slightly modified procedure. […] Appropriate volumes of formic acid were added to achieve a final concentration of 1%. Then, the samples were warmed to 37 °C and loaded to preconditioned Oasis HLB cartridges (Waters Corporation, Milford, MA, USA). These columns were then washed with water, dried under vacuum, and eluted with methanol. The eluates were collected and evaporated under nitrogen. The dry residues were reconstituted in 0.1 mL of methanol, and a 0.005-mL aliquot was removed for determination of radioactivity. The remainder of the supernatants were transferred to HPLC vials and stored at −80 °C until analysis.
(§1) A Finnigan Surveyor HPLC system (Thermo Fisher Scientific Inc., San Jose, CA, USA), consisting of an LC pump plus an autosampler and a UV–Vis plus detector, was used mostly for profiling (except the post-24-h plasma samples, which were analyzed using a Dionex HPLC system). A Phenomenex® Gemini® C18, 5-μm, 3.0 × 100-mm column (Phenomenex Inc., Torrance, CA, USA) was used along with a C-12 guard column (4 × 2 mm). LC conditions were as follows: solvent A was 10 mM ammonium bicarbonate in water (pH 10.0) and solvent B was 100% methanol and the flow rate was 0.8 mL/min. The following gradient was employed (B%): 0–5 min (20%), 32 min (42%), 33 min (60%), 55 min (70%), 56–60 min (95%), and 62–70 min (20%).
(§2) Reconstituted solvent extracts (0.050–0.10 mL) of plasma, urine, or feces were injected onto the HPLC column. The post-column eluate was split after UV detection into two streams (0.64 and 0.16 mL/min). The 0.64-mL stream was diverted to a fraction collector (Gilson FX 204; Gilson Medical Electronics, Middleton, WI, USA) to be collected in 96-well plates at 0.16 min/well (ScintiPlates; PerkinElmer Life Sciences, Shelton, CT, USA), and the 0.16-mL stream was directed to the mass spectrometer. The solvent in the 96-well plates was removed at 40 °C using a Genevac evaporator (Genevac, Inc., Stone Ridge, NY, USA).
(§3) The radioactivity counts per minute (CPM) in each well was determined using a MicroBeta scintillation counter (PerkinElmer Life and Analytical Sciences). The resulting CPM vs. time data were processed using Excel (Microsoft Corporation, Seattle, WA, USA). The CPM in each well was background-subtracted (using the average CPM values of the blank region of the HPLC run). Radiochromatographic profiles were obtained by plotting the resulting net CPM values against time after injection. Radioactive peaks in the chromatographic profiles were identified, and the radioactivity in each peak was summed and reported as a percentage of TRA in the HPLC run.

[3] = system: BCR–ABL; assay: In vitro kinase activity screen against BCR–ABL (data not shown); type: biochemical
[4] = biological target: T1, BCR–ABL (Homo sapiens, UniProt P00519+P11274); assay: In vitro cellular activity screen against BCR–ABL (data not shown); type: cell-based
T1 sequence (P00519 229-512 limits assumed): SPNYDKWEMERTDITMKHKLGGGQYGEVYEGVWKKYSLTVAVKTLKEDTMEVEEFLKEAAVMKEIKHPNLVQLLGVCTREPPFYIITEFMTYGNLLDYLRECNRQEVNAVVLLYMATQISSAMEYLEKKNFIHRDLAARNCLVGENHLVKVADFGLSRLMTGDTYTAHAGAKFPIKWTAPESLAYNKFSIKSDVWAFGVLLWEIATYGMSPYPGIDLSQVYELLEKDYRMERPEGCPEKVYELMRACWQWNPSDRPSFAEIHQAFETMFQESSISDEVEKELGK

[5] = Metabolite characterization by LC/MS/MS in human plasma, urine, and feces; conditions: human plasma, urine, feces; LC/MS/MS
Method: The remaining eluate stream of 0.16 mL/min from the HPLC runs was diverted to the inlet of the mass spectrometer. The samples were analyzed using a heated electrospray ionization probe. Full-scan positive ion MS data were collected using Finnigan Exactive (MS^1) or Q-Exactive (MS^1 and MS^2) mass spectrometers (Thermo Fisher Scientific Inc.) Exact conditions are described in the Online Resource 3.
Finnigan Exactive or Q-Exactive mass spectrometers (Thermo Fisher Scientific Inc., San Jose, CA) were used to collect full scan MS^1 and MS^2 data.

[6] = Metabolite profiling of urine (HPLC-radiochromatography); type: in vivo, human; conditions: 0–72 h pool
Method: Predose and 0–72-h urine samples (grand pool of all six subjects) were prepared. Urine samples (5 mL) were centrifuged, the supernatant was transferred to a 15-mL polypropylene tube and placed on ice; the residues were extracted with 1 mL of methanol and the methanol extracts were added to the supernatants. The combined extracts were evaporated under nitrogen and reconstituted in 0.2 mL of methanol. A 0.010-mL aliquot of the reconstituted solution was removed for determination of radioactivity, and the remainder was transferred to HPLC vials and stored at −80 °C.
as §1, §2, §3

Structure (SMILES) | time postdose at which C max / maximal levels in plasma were observed ([1]; human plasma) [h] | concentration at 144 h ([1]; male, human, plasma, 45 mg) [nM] | % Distribution in plasma ([2]; 0–24 h pooled plasma) [%] | % Distribution in plasma ([2]; 5 h pooled plasma) | % Distribution in plasma ([2]; 10 h pooled plasma) [%] | % Distribution in plasma ([2]; 12 h pooled plasma) [%] | % Distribution in plasma ([2]; 36 h pooled plasma) [%] | % Distribution in plasma ([2]; 48 h pooled plasma) | % Distribution in plasma ([2]; 72 h pooled plasma) | % Distribution in plasma ([2]; 96 h pooled plasma) | activity against BCR–ABL, kinase screen [3] | activity against BCR–ABL, cellular activity screen [4] | Matrix (in which the metabolite was found) [5] | further results
Cc1ccc(C(=O)Nc2ccc(C(=O)O)c(C(F)(F)F)c2)cc1C#Cc1cnc2cccnn12 [M23, 4-(3-(imidazo[1,2-b]pyridazin-3-ylethynyl)-4-methylbenzamido)-2-(trifluoromethyl)benzoic acid] | 36 | < 3 | 7 | – (“–” values less than 0.5% are not reported) | 3.4 | 2.4 | 3.9 | 5.4% | 10.7% | 6.0% | inactive | inactive | P, U, F | 
Cc1ccc(C(=O)O)cc1C#Cc1cnc2cccnn12 [M14, 3-(imidazo[1,2-b]pyridazin-3-ylethynyl)-4-methylbenzoic acid] | 2 to 12 | < 2.4 | 14.9 | 29.0% | 10.8 | 12.8 | 2.4 | – (“–” values less than 0.5% are not reported) | – (“–” values less than 0.5% are not reported) | – (“–” values less than 0.5% are not reported) | inactive | inactive | P, U | plasma level at 144 h postdose ([1]; human plasma, 144 h postdose): at or below detectable limits; AUC(0-inf) ([1]; male, human, plasma, po, 45 mg): 0.181 µM·h; AUC(0-t) ([1]; male, human, plasma, po, 45 mg): 0.169 µM·h; Cmax ([1]; male, human, plasma, po, 45 mg): 5 nM; Tmax ([1]; male, human, plasma, po, 45 mg): 5 h; half-life ([1]; male, human, plasma, po, 45 mg): 33.7 h; % of total radioactive dose [6]: 0.3%; % Distribution in matrix ([6]; % of urinary TRA): 5.6%
